In paper PMC5458052 (Nature Communications, 2017):
Several values for one entry are separate records, joined by “and”; a condition that tells them apart may be missing. Identical values can stand only once. Entries after “also recorded” stand apart in the source; their conditions may differ. Like-named read-outs stand apart in the source and are kept apart here.

Tests used:
[1] = tested on: P. vivax clinical field isolates; test: microbe, parasite or virus in culture; type: cell-based; details: Plasmodium vivax, read-out: Median IC50
CYP2C9 = CYP2C9 (Homo sapiens, UniProt P11712); test: Cytochrome P450 inhibition CYP2C9
[2] = Metabolic stability and metabolite profile in human liver microsomes; details: for Microsome-Predicted EH: human liver microsomes
[3] = tested on: P. falciparum strain 3D7^0087/N9; test: Humanized SCID mouse model of P. falciparum; type: in vivo, Plasmodium falciparum
[4] = tested on: P. falciparum lab lines FC27 and K1; test: microbe, parasite or virus in culture; type: cell-based; details: Plasmodium falciparum, median of 3 independent experiments
CYP2C19 = CYP2C19 (Homo sapiens, UniProt P33261); test: Cytochrome P450 inhibition CYP2C19; type: in vitro ADME
CYP2D6 = CYP2D6 (Homo sapiens, UniProt P10635); test: Cytochrome P450 inhibition CYP2D6; type: in vitro ADME
P. falciparum 3D7 = test: In vitro antimalarial activity, drug sensitivity testing (3D7); type: cell-based; details: Plasmodium falciparum
[5] = tested on: P. falciparum K13 wild-type and mutant lines (Cam3.II, V1/S); test: microbe, parasite or virus in culture; type: cell-based, Plasmodium falciparum; details: read-out: IC50 Mean

Chain of CYP2C9 (P11712 whole entry): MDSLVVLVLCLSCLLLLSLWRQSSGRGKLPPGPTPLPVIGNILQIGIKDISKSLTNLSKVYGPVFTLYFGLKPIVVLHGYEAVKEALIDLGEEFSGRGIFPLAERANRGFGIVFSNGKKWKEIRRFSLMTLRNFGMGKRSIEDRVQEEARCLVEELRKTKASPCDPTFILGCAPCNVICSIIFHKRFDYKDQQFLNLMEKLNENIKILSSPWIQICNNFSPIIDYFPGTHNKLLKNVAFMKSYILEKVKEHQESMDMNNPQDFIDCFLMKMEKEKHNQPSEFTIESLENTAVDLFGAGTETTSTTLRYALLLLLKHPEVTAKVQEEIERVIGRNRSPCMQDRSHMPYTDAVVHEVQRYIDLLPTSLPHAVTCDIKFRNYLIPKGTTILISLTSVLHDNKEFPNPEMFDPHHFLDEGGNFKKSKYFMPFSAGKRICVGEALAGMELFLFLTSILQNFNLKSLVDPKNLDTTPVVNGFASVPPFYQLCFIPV
Chain of CYP2C19 (P33261 whole entry): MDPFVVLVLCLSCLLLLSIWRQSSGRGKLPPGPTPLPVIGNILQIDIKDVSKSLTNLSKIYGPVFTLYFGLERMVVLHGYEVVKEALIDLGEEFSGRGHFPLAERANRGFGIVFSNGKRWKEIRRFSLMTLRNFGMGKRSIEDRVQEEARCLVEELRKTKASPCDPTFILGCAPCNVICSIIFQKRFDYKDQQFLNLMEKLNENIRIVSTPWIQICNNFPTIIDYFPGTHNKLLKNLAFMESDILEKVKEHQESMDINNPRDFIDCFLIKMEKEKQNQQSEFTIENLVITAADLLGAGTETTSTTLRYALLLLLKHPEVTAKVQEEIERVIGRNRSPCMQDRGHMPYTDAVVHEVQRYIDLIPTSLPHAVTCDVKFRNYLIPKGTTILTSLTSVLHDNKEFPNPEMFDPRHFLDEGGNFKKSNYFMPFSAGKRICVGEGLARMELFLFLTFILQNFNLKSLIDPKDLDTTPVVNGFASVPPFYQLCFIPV
Chain of CYP2D6 (P10635 whole entry): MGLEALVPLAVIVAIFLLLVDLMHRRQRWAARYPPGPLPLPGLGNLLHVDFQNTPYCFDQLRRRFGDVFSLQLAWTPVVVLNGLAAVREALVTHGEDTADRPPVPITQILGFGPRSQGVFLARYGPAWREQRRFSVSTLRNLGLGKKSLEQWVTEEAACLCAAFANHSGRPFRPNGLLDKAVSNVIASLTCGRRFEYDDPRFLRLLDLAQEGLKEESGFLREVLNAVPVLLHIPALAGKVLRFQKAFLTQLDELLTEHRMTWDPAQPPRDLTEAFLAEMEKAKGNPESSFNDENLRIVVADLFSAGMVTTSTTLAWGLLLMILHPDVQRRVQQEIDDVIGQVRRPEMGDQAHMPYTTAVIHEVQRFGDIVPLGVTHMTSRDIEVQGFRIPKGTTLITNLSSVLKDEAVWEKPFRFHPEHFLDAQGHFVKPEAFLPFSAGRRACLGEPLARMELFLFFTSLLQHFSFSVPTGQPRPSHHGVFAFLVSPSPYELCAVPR

With FC1CCN(CCOc2ccc(C3CCC4(CC3)OOC3(OO4)C4CC5CC(C4)CC3C5)cc2)CC1 (stereo not drawn) [Compound E209] the IC50 [1] was 10.5 nM, the IC50 (CYP2C9) was over 20 µM and the “% Substrate Consumed” value ([2]; human liver microsomes with NADPH, 60 minutes) was 45%. The “Microsome-Predicted EH” value ([2]; substrate 1 µM) was 0.50, the “Microsome-Predicted EH” value ([2]; substrate 5 µM) was 0.48 and the half-life at 1 µM ([2]; human, liver microsomes) was 68 min. The half-life at 5 µM ([2]; human, liver microsomes) was 76 min, the microsomal CLint at 1 µM ([2]; human, liver microsomes) was 25 µL/min/mg and the “AUC ED90” value ([3]; single oral dose) was 1.2 µg·h/mL. The parasite clearance ([3]; single oral dose 30 mg kg^−1) was “Complete parasite clearance; also recorded: maximum parasite clearance”, the ED90 ([3]; single oral dose, calculated) was 11.6 mg/kg and the IC50 ([4]; K1, FC27 (CQ S) lab line) was 20.7 nM. The IC50 ([4]; K1, K1 (CQ R) lab line) was 31.8 nM, the IC50 (CYP2C19) was over 20 µM and the IC50 (CYP2D6) was over 20 µM. For the same molecule, the IC50 (P. falciparum 3D7) was 5.1 ± 0.81 nM, the IC50 ([5]; Plasmodium falciparum, 72 h) was 8.71 nM and the IC50 [5] was 7.6 nM and 7.51 nM and 8.46 nM and 7.76 nM and 7.81 nM.
